Values quoted from earlier work in patent publication US20250313903A1, “NEOANTIGEN IMMUNOTHERAPY” (Gradalis, Inc., priority 2023, published 2025).
Where two headings read alike, the source gives them in different places.

Key:
[1] = system: previously treated, PD-L1 positive, advanced NSCLC; conditions: in vivo
[2] = system: advanced renal cell cancer; conditions: in vivo
[3] = system: Stage IIIb/IV newly diagnosed ovarian cancer; conditions: follow up at 74 months
[4] = system: newly diagnosed advanced high-grade ovarian cancer
[5] = system: metastatic NSCLC, 2nd line post platinum-based chemotherapy; conditions: regardless of PD-L1 expression or histology
[6] = system: extensive stage SCLC, 1st line setting; conditions: atezolizumab added to carboplatin and etoposide, vs. placebo
[7] = system: triple-negative breast cancer; conditions: PD-L1 (TPS) ≥1% cut-off
[8] = system: newly diagnosed stage III/IV ovarian cancer
[9] = system: chemo-refractory, metastatic Merkel cell carcinoma
[10] = system: advanced urothelial carcinoma, 2nd line setting; conditions: in vivo
[11] = system: advanced renal cell carcinoma; conditions: Avelumab + Axitinib vs. sunitinib
[12] = system: stage III-IV ovarian cancer
[13] = system: recurrent or metastatic cervical cancer after platinum-based chemotherapy; conditions: vs. investigator-choice chemotherapy
[14] = system: locally advanced, metastatic squamous cell carcinoma
[15] = system: advanced/metastatic urothelial carcinoma, platinum-refractory
[16] = system: unresectable or metastatic, untreated melanoma; conditions: for 24-months OS / 24-months PFS: PD-L1 ≥1%; for 1-year OS / PFS (1-year PFS in Table 3): in vivo
[17] = system: untreated, PD-L1 ≥50 advanced NSCLC; conditions: vs. chemotherapy
[18] = system: untreated, non-squamous NSCLC without sensitizing mutations; conditions: pembrolizumab plus chemotherapy vs. chemotherapy
NSCLC = conditions: irrespective of PD-L1 status
[19] = system: recurrent or metastatic head and neck squamous cell cancer; conditions: first-line; monotherapy for CPS ≥1% or with chemotherapy
[20] = system: refractory classical Hodgkin's lymphoma; conditions: in vivo
[21] = system: refractory/relapse primary mediastinal large B-cell lymphoma; conditions: in vivo
[22] = system: unresectable/metastatic urothelial cancer; 2nd line; conditions: for median OS: vs. chemotherapy
[23] = system: unresectable/metastatic urothelial cancer, cisplatin-ineligible; conditions: 1st line, CPS ≥10
[24] = system: MSI-H, dMMR or TMB-H solid tumors
[25] = system: persistent/recurrent or metastatic cervical cancer with PD-L1 CPS ≥1; conditions: pembrolizumab vs. placebo + paclitaxel/platinum +/- bevacizumab
[26] = system: advanced non-colorectal dMMR tumors; conditions: in vivo
[27] = system: unresectable, previously treated, late-stage melanoma; conditions: 3 mg/kg every 3 weeks, alone or with gp100
[28] = system: untreated unresectable/metastatic melanoma; conditions: combination vs. ipilimumab alone
[29] = system: lymph-node positive or metastatic melanoma after complete resection; conditions: adjuvant

## CC(=O)O[C@@]12CO[C@@H]1C[C@H](O)[C@@]1(C)C(=O)[C@H](O)C3=C(C)[C@@H](OC(=O)[C@H](O)[C@@H](NC(=O)OC(C)(C)C)c4ccccc4)C[C@@](O)([C@@H](OC(=O)c4ccccc4)[C@H]21)C3(C)C [docetaxel]
[1]
  OS: 8.5 months

## CO[C@H]1C[C@@H]2CC[C@@H](C)[C@@](O)(O2)C(=O)C(=O)N2CCCC[C@H]2C(=O)O[C@H]([C@H](C)C[C@@H]2CC[C@@H](OCCO)[C@H](OC)C2)CC(=O)[C@H](C)/C=C(\C)[C@@H](O)[C@@H](OC)C(=O)[C@H](C)C[C@H](C)/C=C/C=C/C=C/1C [everolimus]
[2]
  OS: 19.6 months

## NC(=O)c1cccc2cn(-c3ccc([C@@H]4CCCNC4)cc3)nc12 [niraparib]
[3]; HRP
  OS HR: 0.93
[3]; overall
  OS HR: 1.01

## CNCc1ccc(-c2[nH]c3cc(F)cc4c3c2CCNC4=O)cc1 [rucaparib]
[4]; BRCA-wt/LOH low patients
  PFS: 12.1 months
[4]; in vivo
  PFS: 20.2 months

## Atezolizumab: PD-L1 blocking antibody
[5]
  OS (in words): OS benefit
[6]
  median OS: Median OS: 12.3 months
  median PFS: Median PFS: 5.2 months
[6]; listed as atezolizumab
  median OS: 12.3 months
  median PFS: 5.2 months
[7]
  OS (in words): OS benefit
[8]; HRP subgroup
  PFS HR vs. placebo arm: 0.82
[8]; PD-L1+ patients
  PFS: 20.8 months
  PFS HR vs. placebo arm: 0.80
[8]; atezolizumab with carboplatin plus paclitaxel and bevacizumab
  median PFS: 19.5 months
[8]; with carboplatin plus paclitaxel and bevacizumab
  PFS HR vs. placebo arm: 0.92

## Avelumab: PD-L1 blocking antibody
[9]; in vivo
  CR, patients: 8/88
  ORR, responders/patients: 28/88
[9]; regardless of PD-L1
  ORR: ORR: 31.8%
[10]
  24-month OS: OS: 20.1%
  CR: 4.1%
  ORR: ORR: 16.5%; CR:
  PR: 12.4%
  median DoR: Median DoR: 20.5 months
  median OS: Median OS: 7.0 months
  median PFS: Median PFS: 1.6 months
[11]; PD-L1+
  ORR: 55.2%
  median PFS: 13.8 months
[11]; overall population
  median PFS: median PFS: 13.8
[12]; avelumab in combination with chemotherapy
  PFS HR vs. chemotherapy alone: 1.14
[12]; avelumab only group
  median PFS: 16.8 months
[12]; combination with chemotherapy
  median PFS: 18.1 months
[12]; single agent avelumab maintenance
  PFS HR vs. chemotherapy alone: 1.43

## Cemiplimab
[13]
  ORR: ORR: 16.4% vs. 6.3%
  median OS: Median OS: 12.0 months
  median PFS: HR: 0.75, p < 0.001
[14]; Phase 1 expansion cohorts
  ORR: 50%
[14]; Phase 2 metastatic-disease cohort
  response rates: 47

## Durvalumab: PD-L1 blocking antibody
[15]; PD-L1 negative
  ORR: 0% (PD-L1 negative)
[15]; PD-L1 negative, listed as durvalumab
  ORR: none
[15]; PD-L1 positive
  ORR: patients), 46.4%
[15]; PD-L1 positive, listed as durvalumab
  ORR: 46.4%
[15]; all patients
  ORR: ORR: 31% (all
[15]; all patients, listed as durvalumab
  ORR: 31%

## Pembrolizumab: fully humanized IgG4 antibody targeting PD-1
[16]
  24-months OS: 58%
  24-months PFS: 33%
[1]
  OS: 10.4 months
[17]
  6-months OS: 80.2% vs. 72.4%;
  ORR: ORR: 44.8% vs. 27.8%
  median PFS: Median PFS: 10.3 months
[17]; listed as pembrolizumab
  6-months OS: 80.2%
  ORR: 44.8%
  median PFS: 10.3 months
[18]
  PFS HR: (HR: 0.53; p = 0.0049)
  median PFS: Median PFS: 19.0 months
[18]; listed as pembrolizumab
  median PFS: 19 months
NSCLC
  response rate, PFS and OS vs. chemotherapy (in words): consistent response rate, PFS and OS advantage
[19]
  OS: 12.3 months
[20]
  complete response: 22%
  median duration of response: 11 months
  response rate: 69%
[21]
  complete response rate: 13%
  response rate: 45%
[22]; in vivo
  OS benefit compared to chemotherapy: 3 months
[22]
  median OS: Median OS: 10.3 months
[22]; listed as pembrolizumab
  median OS: 10.3 months
[23]
  ORR: ORR: 38%
[23]; listed as pembrolizumab
  ORR: 38%
[24]; 90 patients with advanced endometrial cancer
  ORR, responders/patients: 43/90
[24]; 98 patients with advanced cervical cancer
  ORR, responders/patients: 12/98
[24]; MSI-H or dMMR solid tumors
  ORR: studies: ORRs ~40%
[24]; MSI-H or dMMR solid tumors, listed as pembrolizumab
  ORR: ~40%
[24]; TMB-H patients (Keynote-158)
  ORR: 29%
[24]; TMB-low patients (Keynote-158)
  ORR: 6%
[25]
  median DOR: 18 vs. 10.4 months
  median PFS: Median PFS: 10.4 months
Metastatic NSCLC; PD-L1 negative tumors
  responding tumors: 15%
Metastatic NSCLC; PD-L1 positivity
  response rate: 45%
[26]
  ORR across tumor types: 34%
  complete response, patients: 10%

## ipilimumab: FDA approved CTLA-4 inhibitor
[27]
  OS vs. gp100 alone (in words): OS advantage
[28]
  median PFS: 4.4 months
[29]
  12-month RFS: 60.8%
[16]
  24-months OS: 45%
  24-months PFS: 13%
  1-year OS: 58.2%
  PFS (1-year PFS in Table 3): 26.5%
[16]; listed as Ipilimumab
  1-year OS: (vs. 58.2%;
  PFS (1-year PFS in Table 3): 26.5%; p < 0.001);
